# Key:
# [1] = test system: WEHI-231 OE cells; experiment: Viability by PI staining and FACS, WEHI-231 OE; type: cell-based, murine; conditions: Mus musculus, WEHI231, 24 hours
# Protocol: (§1) FIG. 11B. WEHI-231 JM and OE cells are equally sensitive to inhibition of sphingosine kinase and exogenous ceramide. Cells were treated with increasing concentrations of C2-ceramide or DL-threo-dihydrosphingosine--apotent inhibitor of sphingosine kinase. Viability was assayed using PI staining and FACS analysis 24 hours after treatment.
# (§2) For viability staining, 2.5-3.5×10^5 cells were treated with varying concentrations of C2-ceramide, irradiation, or both.
# (§3) In order to address the question of whether the resistance of the OE subline was due, in part, to alterations in ceramide metabolites or targets, three studies were performed. […] Both cell lines were equally susceptible to the effects of sphingosine kinase inhibition and the resulting […] in ceramide. […] Thus the radioresistance can be attributed to the lack of sphingomyelinase activation and the subsequent decreased ceramide production following irradiation.
# [2] = test system: WEHI-231 JM cells; experiment: Viability by PI staining and FACS, WEHI-231 JM; type: cell-based, murine; conditions: Mus musculus, WEHI231, 24 hours
# Protocol: as §1, §2, §3
# [3] = test system: WEHI-231 OE cells; experiment: Resistance of selected WEHI-231 OE variants to n-oleoylethanolamine; type: cell-based, murine; conditions: 75 μM n-oleoylethanolamine
# Protocol: WEHI-231 JM cells (1×10^7) were treated with two successive treatments of 100 μM and 125 μM N-oleoylethanolamine (Matreya), a potent inhibitor of ceramidase (Coroneos et al., 1995; Ambrosini et al., 1994). Cells were grown in media containing n-oleoylethanolamine for 96 hours. Serial dilutions isolated individual resistant cells and were expanded after each selection. Every two weeks cells were re-selected with 125 μM n-oleoethanolamine.
# [4] = test system: WEHI-231 JM cells; experiment: Intracellular ceramide accumulation in WEHI-231 JM cells; type: cell-based, murine; conditions: within 24 hours
# Protocol: Quantitation of ceramide by diacylglycerol kinase was similar to that described by Dressler and Kolesnick (1990). After irradiation, lipids were extracted and resuspended by bath sonication in 20 μl of 7.5% n-octyl-β-D-glucopyranoside, 5 mM cardiolipin, 1 mM DETAPAC. Seventy μl of a reaction mix was added to give a final concentration of 0.05M imidazole/HCl pH 6.6, 0.05M NaCl, 12.5 mM MgCl2, 1 mM EGTA and DAG kinase at a concentration of 0.7 U/ml. The reaction was started by the addition of 10 μl of [γ-^32 P]ATP (1.0 μCi/tube) in 5 mM ATP and incubated at room temperature for 30 min and stopped by the extraction of lipids with 450 μl of CHCl3 :CH3 OH (1:2) and 20 μl of 1% HClO4. The monophase was mixed and after 10 min., 150 μl CHCl3 and 150 μl of 1% HClO4 were added and the tubes vortexed and centrifuged at 5000 g for 5 min. The lower organic phase was washed twice with 1% HClO4 and then dried in a Speed Vac Apparatus. The phosphorylation products, ceramide-1-phosphate and phosphatidic acid (fom DAG) were resolved on a 10 cm×10 cm LH P-K TLC plate (Whatman). Data was calculated as pmoles of ceramide/10^6 cells by scintillation counting. In Example 6, data (mean +/- SD) represent at least 4 independent studies in which *p<002 compared with unirradiated controls. […]
# [5] = test system: WEHI-231 cells; conditions: Chmura et al., 1996a; cited from earlier work
# [6] = test system: cyclic-AMP kinase (PKA); conditions: cited from earlier work
# [7] = test system: WEHI-231 cells; experiment: Sphingomyelin mass by lipid extraction / TLC; type: cell-based, murine; conditions: 250 nM calphostin C, 2 hours
# Protocol: (§4) FIG. 7A. Inhibition of PKC causes an increase in ceramide production through the activation of a neutral sphingomyelinase and decreases in sphingomyelin levels. Ceramide production was quantitated using the DAG kinase assay for WEHI-231 JM cells and total lipid extraction was used to assay sphingomyelin mass. Following addition of 10 μM chelerythrine, cells were lysed at the appropriate time points as described herein. Each data point represents the average percentage change in ceramide or sphingomyelin generation from baseline derived from at least 8 independent studies for all time points with the exception of those marked with * (n=4). Standard deviations depicted by error bars.
# (§5) FIG. 7B. […] Ceramide production and sphingomyelin mass was quantitated identical to that for chelerythrine. Cells were lysed 2 hours following the addition of 250 nM calphostin C. […]
# Cells were prelabeled with [^3 H] palmitate (10 μCi/ml) for 24 hours to isotopic equilibrium in 15 ml glass tubes to minimize changes in cellular ceramide and sphingomyelin due to handling and changing of media (Borchardt et al., 1994). […] Autoradiographs were quantitated using an Epson 1200 c 30 bit scanner and NIH Image software (public domain program developed at the NIH and available from the Internet via FTP from zippy.nimh.nih.gov). […]
# [8] = test system: WEHI-231 cells; experiment: Apoptosis / cell death of WEHI-231 (propidium iodide FACS, gel electrophoresis, DAPI); type: cell-based, murine; conditions: chelerythrine 10 μM or calphostin C 250 nM
# Protocol: Cells undergoing apoptosis also shrink in size.
# Cells, 5×10^5, were centrifuged at 1000 rpm and resuspended in approximately 100 μl cell culture media. The cell suspension was then mixed with 100 μl of DAPI (4',6-iamidino-2-phenylindole, Sigma D9542, 1 μg/ml in PBT (PBS+1% Triton X-100)). One drop of this mixture was placed on a microslide with a coverslip. The cells were viewed by fluorescence microscopy using an Olympus BX-40 microscope with a 100 Watt Mercury lamp, a 16 or 40 X Fluorite objective, N.A. 0.75, (Leco #1-UB527) and a UV filter cube (ex 330-385 nm, em 420 nm, wide band pass, Leco #U-M536). Images were photographed using an Optronics cooled low-light video camera (Leco #DEI-470TB) to which was attached a 2X coupler (Leco #HR200-CMT). The image was saved to a digital file at 72 dpi.
# DNA degradation was assessed as previously described (Gottschalk et al., 1993; 1994). Briefly, following treatment in 100 mm plates or 24 well plates, cells were collected and lysed in 0.5 ml lysis buffer (0.6% SDS+10 mM EDTA, pH 7.0). NaCl was added to a final concentration of 1M, mixed by inversion, incubated for 12 hours at 4° C. and then spun at 14,000 g for 30 minutes. Samples were treated with chloroform (1:1) and precipitated in ethanol prior to electrophoresis in a 3% agarose gel and visualized with ethidium bromide.
# [9] = test system: protein kinase C (PKC); conditions: cited from earlier work
# [10] = test system: WEHI-231 cells; experiment: Ceramide production by DAG kinase assay; type: cell-based, murine; conditions: 250 nM calphostin C, 2 hours
# Protocol: as §4, §5
# Quantitation of ceramide by diacylglycerol kinase was similar to that described by Dressler and Kolesnick (1990). […] Data was calculated as pmoles of ceramide/10^6 cells by scintillation counting. […]
# In order to test whether PKC inhibition alters ceramide production, the DAG kinase assay was used to quantify intracellular ceramide following chelerythrine and calphostin C treatment (Dressler and Kolesnick, 1990; Preiss et al., 1986). […]
# [11] = test system: HL-60 cells; conditions: literature reports; cited from earlier work
molecule,measurement,setting,value
CCCCCCCCCCCCCCC[C@H](O)[C@@H](N)CO (relative stereo) [DL-threo-dihydrosphingosine],IC50,[1],3 µM
same,IC50,[2],3 µM
CCCCCCCC/C=C\CCCCCCCC(=O)NCCO [N-oleoylethanolamine],resistance to apoptosis vs parental line,[3],3 fold
same,intracellular accumulation of ceramide,[4],rose within 24 hours in a dose dependent manner
Calphostin C,interaction with exogenous ceramide analogs in inducing apoptosis,[5],act in synergy with exogenous ceramide analogs to induce apoptosis
same,inhibition of PKA,[6]; at concentrations used for the inventors' studies,do not appear to inhibit other kinases
same,IC50,[6],50 µM
same,sphingomyelin levels,[7],decreased sphingomyelin levels
same,cell death,[8]; 24 hours,greater than 90%
same,DNA laddering and nuclear condensation,[8],DNA laddering and nuclear condensation
same,specificity at blocking PKC vs staurosporin and H7,[9],at least 30 fold
same,ceramide production,[10],induced cerarnide production
CN[C@@H]1C[C@H]2O[C@@](C)([C@@H]1OC)n1c3ccccc3c3c4c(c5c6ccccc6n2c5c31)C(=O)NC4 [staurosporine],apoptosis in HL-60 cells,[11],"both to antagonize (Cotter et al., 1992) and to initiate apoptosis in HL-60 cells"
